In patent US20250243192A1, “CRYSTALLINE FORM OF LANIFIBRANOR” (INVENTIVA, priority 2022, published 2025):
Each block holds one compound with its values, some of them ahead of it.

Experiments:
Assay type in all cases: physicochemical
[1] = Competitive slurry tests (stability tests) in various solvents, solid analysed by PXRD; details: room temperature; for Form(s) present T0: immediately after stirring was initiated
Method: Competitive slurry tests were performed in various solvents such as acetone, ethanol, ethyl acetate, acetic acid, methyl ethyl ketone and methyl isobutyl ketone.
A saturated solution of lanifibranor form beta (as obtained in example 2) was prepared for each solvent. An equal amount of lanifibranor form alpha and lanifibranor form beta was introduced into a vial (50 mg+50 mg), and 250 μL of the saturated solution prepared beforehand (recovered by filtration through a 0.2 μm H-PTFE filter) were then added. The mixture was stirred at room temperature, samples of the solid were taken immediately after stirring was initiated and 24 hours after, and analyzed by PXRD to identify the solid form(s) present.

[2] = Compression tests, pellet analysed by PXRD; details: 100 mg, 13 mm die, 10-Ton pressure for 15 minutes
Method: Compression tests were performed on the crystalline forms (alpha, beta) and on the amorphous form of lanifibranor. 100 mg of each sample were introduced between […] into a 13 mm die and subjected to a 10-Ton pressure for 15 minutes. The pellet obtained was then de-compacted and analysed by PXRD in order to monitor changes in the crystal structure of the sample.

[3] = Screening for solid forms of lanifibranor
Excerpt: An amorphous form was further obtained.

[4] = Stability testing in accordance with EMA guidance (CPMP/ICH/2736/99), PXRD and DSC after storage
Method: Lanifibranor form beta, as obtained in example 2, was submitted to stability testing in accordance with EMA guidance (CPMP/ICH/2736/99, last revised in August 2003); the drug substance was thus stored under the following conditions: • 6 months at 30° C./65° RH, • 6 months at 40° C./75% RH, and • 12 months at 25° C./60% RH.
At the end of each storage period, the drug substance was characterized by PXRD and by DSC.

[5] = Dynamic vapor sorption (DVS) analysis; details: range 0% RH-95% RH, 25° C.
Method: DVS analysis was conducted on a SMS DVS Intrinsic system. Analyses were performed on a few milligrams of sample, in open aluminum pans at 25° C. The stability criterion for each step was a weight change lower than 0.002% on a 5 min time frame. The time criterion for each step was 100 min (minimum duration by step: 10 min). Relative humidity was scanned between 0% RH and 95% RH with 10% RH steps (40-0-95-0-95).

[6] = Thermogravimetry (TGA) analysis; details: temperature range 25-200° C.
Method: TGA analysis was conducted on a Mettler Toledo TGA/DSC3+ thermogravimetric analyzer. Analyses were performed on a few milligrams of sample, in 100 µL sealed aluminum pans, punctured before analysis, under nitrogen flush at 50 mL/min. A temperature range between 25° C. and 300° C. was scanned at a 10° C./min rate.

Form(s) present T0 + 24 h ([1]; acetic acid): form beta
Form(s) present T0 ([1]; acetic acid): form alpha + form beta
Form(s) present T0 + 24 h ([1]; acetone): form beta
Form(s) present T0 ([1]; acetone): form alpha + form beta
Form(s) present T0 + 24 h ([1]; ethanol): form beta
Form(s) present T0 ([1]; ethanol): form alpha + form beta
Form(s) present T0 + 24 h ([1]; ethyl acetate): form beta
Form(s) present T0 ([1]; ethyl acetate): form alpha + form beta
Form(s) present T0 + 24 h ([1]; methyl ethyl ketone): form beta
Form(s) present T0 ([1]; methyl ethyl ketone): form alpha + form beta
Form(s) present T0 + 24 h ([1]; methyl isobutyl ketone): form beta
Form(s) present T0 ([1]; methyl isobutyl ketone): form alpha + form beta
SMILES: O=C(O)CCCc1cc2cc(Cl)ccc2n1S(=O)(=O)c1ccc2ncsc2c1 [1-(6-benzothiazolylsulfonyl)-5-chloro-1H-indole-2-butanoic acid]

SMILES: O=C(O)CCCc1cc2cc(Cl)ccc2n1S(=O)(=O)c1ccc2ncsc2c1 [amorphous form, 1-(6-benzothiazolylsulfonyl)-5-chloro-1H-indole-2-butanoic acid]
change in the solid form after compression (PXRD) [2]: weak diffraction signals corresponding to form beta were detected after compression
stability of the solid form upon handling/processing [3]: crystallize into form alpha or form beta even at low temperatures

SMILES: O=C(O)CCCc1cc2cc(Cl)ccc2n1S(=O)(=O)c1ccc2ncsc2c1 [lanifibranor form alpha, 1-(6-benzothiazolylsulfonyl)-5-chloro-1H-indole-2-butanoic acid]
change in the solid form after compression (PXRD) [2]: additional signals that could correspond to peak shifts caused by a transformation to form beta
stability of the solid form upon handling/processing [3]: did readily convert to the other form upon handling/processing

relative stability of the solid forms ([1]; conclusion from the competitive slurries in all solvents): most stable form at room temperature
solid form stability on storage (PXRD and DSC) ([4]; 6 months at 30° C./65° RH): stable over long-term storage
solid form stability on storage (PXRD and DSC) ([4]; 6 months at 40° C./75% RH): stable over long-term storage
solid form stability on storage (PXRD and DSC) ([4]; 12 months at 25° C./60% RH): stable over long-term storage
change in the solid form after compression (PXRD) [2]: no significant change in the solid form
maximum uptake (weight variation) in DVS [5]: +0.1%
stability of the solid form upon handling/processing [3]: more stable form
SMILES: O=C(O)CCCc1cc2cc(Cl)ccc2n1S(=O)(=O)c1ccc2ncsc2c1 [lanifibranor form beta, 1-(6-benzothiazolylsulfonyl)-5-chloro-1H-indole-2-butanoic acid]
weight loss in TGA curve [6]: does not highlight any significant weight loss
